From PMC5218480 (PLoS ONE, 2017)

Tested on: MV-4-11 cells
Test: Gene expression microarray analysis (Affymetrix PrimeView) and GSEA
Assay type: cell-based, human
Design: RFU PODN (11730768_x_at) / Fold change /veh PODN (11730768_x_at) / RFU LINC00158 (11744669_a_at) / Fold change /veh LINC00158 (11744669_a_at) / RFU DUSP10 (11751237_a_at) / Fold change /veh DUSP10 (11751237_a_at) / RFU ID3 (11757404_x_at) / Fold change /veh ID3 (11757404_x_at) / RFU PLEKHG5 (11737974_s_at) / Fold change /veh PLEKHG5 (11737974_s_at) / RFU LRRC4B (11730491_at) / Fold change /veh LRRC4B (11730491_at) / RFU GIMAP4 (11747438_a_at) / Fold change /veh GIMAP4 (11747438_a_at) / RFU KRT8 (11758183_x_at) / Fold change /veh KRT8 (11758183_x_at) / RFU CNN1 (11734310_a_at) / Fold change /veh CNN1 (11734310_a_at) / RFU VPS37D (11726825_at) / Fold change /veh VPS37D (11726825_at) / RFU C10orf10 (11716522_x_at) / Fold change /veh C10orf10 (11716522_x_at) / RFU KIR2DL2 /// KIR2DL4 /// KIR2DL5A /// KIR2DL5B /// KIR2DS1 /// KIR2DS2 /// KIR2DS3 /// KIR2DS4 /// KIR3DL3 /// KIR3DL3 /// KIR3DS1 (11738374_at) / Fold change /veh KIR2DL2 /// KIR2DL4 /// KIR2DL5A /// KIR2DL5B /// KIR2DS1 /// KIR2DS2 /// KIR2DS3 /// KIR2DS4 /// KIR3DL3 /// KIR3DL3 /// KIR3DS1 (11738374_at) / RFU C1QL1 (11718748_at) / Fold change /veh C1QL1 (11718748_at) / RFU TMPRSS4 (11747572_a_at) / Fold change /veh TMPRSS4 (11747572_a_at) / RFU HAMP (11756126_x_at) / Fold change /veh HAMP (11756126_x_at) / RFU RNFT2 (11725882_a_at) / Fold change /veh RNFT2 (11725882_a_at) / RFU NR4A2 (11747474_a_at) / Fold change /veh NR4A2 (11747474_a_at) / RFU ABCC12 (11746883_a_at) / Fold change /veh ABCC12 (11746883_a_at) / RFU TMEM136 (11760407_x_at) / Fold change /veh TMEM136 (11760407_x_at) / RFU CLDN22 /// WWC2 (11732394_at) / Fold change /veh CLDN22 /// WWC2 (11732394_at) / RFU HLA-DPB1 (11760878_x_at) / Fold change /veh HLA-DPB1 (11760878_x_at) / RFU SPINT1 (11716480_a_at) / Fold change /veh SPINT1 (11716480_a_at) / RFU GAP43 (11754022_s_at) / Fold change /veh GAP43 (11754022_s_at) / RFU A4GNT (11735810_at) / Fold change /veh A4GNT (11735810_at) / RFU PRB3 (11715151_x_at) / Fold change /veh PRB3 (11715151_x_at) / RFU TUBB4B (11761932_at) / Fold change /veh TUBB4B (11761932_at) / RFU CAPN14 (11732068_a_at) / Fold change /veh CAPN14 (11732068_a_at) / RFU TMCC2 (11721928_a_at) / Fold change /veh TMCC2 (11721928_a_at) / RFU IRGQ (11745062_a_at) / Fold change /veh IRGQ (11745062_a_at) / RFU FAM174B (11720279_a_at) / Fold change /veh FAM174B (11720279_a_at) / RFU TMPRSS4 (11748680_a_at) / Fold change /veh TMPRSS4 (11748680_a_at) / RFU FAM212B (11763350_a_at) / Fold change /veh FAM212B (11763350_a_at) / RFU PLEKHG5 (11743358_a_at) / Fold change /veh PLEKHG5 (11743358_a_at) / RFU ZSCAN30 (11745921_a_at) / Fold change /veh ZSCAN30 (11745921_a_at) / RFU CMKLR1 (11741424_a_at) / Fold change /veh CMKLR1 (11741424_a_at) / RFU LOC101060620 /// MAPK8IP1 (11723275_at) / Fold change /veh LOC101060620 /// MAPK8IP1 (11723275_at) / RFU SPTSSB (11747773_x_at) / Fold change /veh SPTSSB (11747773_x_at) / RFU PRSS12 (11739890_at) / Fold change /veh PRSS12 (11739890_at) / RFU BIN1 (11741810_x_at) / Fold change /veh BIN1 (11741810_x_at) / RFU WNT11 (11732464_a_at) / Fold change /veh WNT11 (11732464_a_at) / RFU C10orf10 (11716521_a_at) / Fold change /veh C10orf10 (11716521_a_at) / RFU C5orf56 (11738089_at) / Fold change /veh C5orf56 (11738089_at) / RFU CYB561 (11721691_x_at) / Fold change /veh CYB561 (11721691_x_at) / RFU ANKRD19P (11752326_a_at) / Fold change /veh ANKRD19P (11752326_a_at) / RFU OR2T12 /// OR2T33 /// OR2T8 (11738714_s_at) / Fold change /veh OR2T12 /// OR2T33 /// OR2T8 (11738714_s_at) / RFU VCAN (11748164_a_at) / Fold change /veh VCAN (11748164_a_at) / RFU JSRP1 (11732532_at) / Fold change /veh JSRP1 (11732532_at) / RFU KRTAP10-11 (11738290_x_at) / Fold change /veh KRTAP10-11 (11738290_x_at) / RFU MYO3A (11730013_a_at) / Fold change /veh MYO3A (11730013_a_at) / RFU EBF3 (11725865_a_at) / Fold change /veh EBF3 (11725865_a_at) / RFU CAMK2N1 (11719241_x_at) / Fold change /veh CAMK2N1 (11719241_x_at) / RFU C5orf56 (11738088_a_at) / Fold change /veh C5orf56 (11738088_a_at) / RFU OLFML3 (11715873_a_at) / Fold change /veh OLFML3 (11715873_a_at) / RFU LOC100653217 /// NTM (11731650_a_at) / Fold change /veh LOC100653217 /// NTM (11731650_a_at) / RFU MAPK11 (11762145_a_at) / Fold change /veh MAPK11 (11762145_a_at) / RFU FIZ1 (11724087_x_at) / Fold change /veh FIZ1 (11724087_x_at) / RFU OASL (11726364_x_at) / Fold change /veh OASL (11726364_x_at) / RFU SOX15 (11748057_x_at) / Fold change /veh SOX15 (11748057_x_at) / RFU CD79A (11719716_a_at) / Fold change /veh CD79A (11719716_a_at) / RFU HIST1H1D (11736915_at) / Fold change /veh HIST1H1D (11736915_at) / RFU CASKIN2 (11723855_a_at) / Fold change /veh CASKIN2 (11723855_a_at) / RFU LOC730098 (11760151_x_at) / Fold change /veh LOC730098 (11760151_x_at) / RFU OR4N2 (11742367_at) / Fold change /veh OR4N2 (11742367_at) / RFU PRRT2 (11749266_a_at) / Fold change /veh PRRT2 (11749266_a_at) / RFU SNX32 (11753110_a_at) / Fold change /veh SNX32 (11753110_a_at) / RFU CDHR5 (11726645_a_at) / Fold change /veh CDHR5 (11726645_a_at) / RFU RCAN1 (11760418_a_at) / Fold change /veh RCAN1 (11760418_a_at) / RFU FAM167A (11723789_a_at) / Fold change /veh FAM167A (11723789_a_at) / RFU FAM26E (11764081_at) / Fold change /veh FAM26E (11764081_at) / RFU ISYNA1 (11749810_s_at) / Fold change /veh ISYNA1 (11749810_s_at) / RFU ACY1 (11761880_at) / Fold change /veh ACY1 (11761880_at) / RFU 11764098_at / Fold change /veh 11764098_at / RFU SAMD14 (11745864_x_at) / Fold change /veh SAMD14 (11745864_x_at) / RFU NPB (11741838_a_at) / Fold change /veh NPB (11741838_a_at) / RFU TMPRSS6 (11731388_a_at) / Fold change /veh TMPRSS6 (11731388_a_at) / RFU KRTAP10-2 (11738614_at) / Fold change /veh KRTAP10-2 (11738614_at) / RFU ARHGAP8 /// PRR5-ARHGAP8 (11727945_x_at) / Fold change /veh ARHGAP8 /// PRR5-ARHGAP8 (11727945_x_at) / RFU KRTAP5-7 /// NADSYN1 (11734609_at) / Fold change /veh KRTAP5-7 /// NADSYN1 (11734609_at) / RFU RASL12 (11751679_a_at) / Fold change /veh RASL12 (11751679_a_at) / RFU CDKN2B (11736163_a_at) / Fold change /veh CDKN2B (11736163_a_at) / RFU PRF1 (11729649_at) / Fold change /veh PRF1 (11729649_at) / RFU, ZNF638 /// ZNF638-IT1 / Fold change vs veh, ZNF638 /// ZNF638-IT1 / RFU, PANK3 / Fold change vs veh, PANK3 / RFU, SH3YL1 / Fold change vs veh, SH3YL1 / RFU, ZEB2 / Fold change vs veh, ZEB2 / RFU, NRIP1 / Fold change vs veh, NRIP1 / RFU, PTTG1IP / Fold change vs veh, PTTG1IP / RFU, CAPN2 / Fold change vs veh, CAPN2 / RFU, MED14 / Fold change vs veh, MED14 / RFU, SNORA58 / Fold change vs veh, SNORA58 / RFU, C1orf63 / Fold change vs veh, C1orf63 / RFU, LRRFIP1 / Fold change vs veh, LRRFIP1 / RFU, NDUFAF7 / Fold change vs veh, NDUFAF7 / RFU, SLC12A2 / Fold change vs veh, SLC12A2 / RFU, IBTK / Fold change vs veh, IBTK / RFU, ESF1 / Fold change vs veh, ESF1 / Fold change vs veh, TMEM50B / RFU, TAOK1 / Fold change vs veh, TAOK1 / RFU, ACBD3 / Fold change vs veh, ACBD3 / RFU, TMA16 / Fold change vs veh, TMA16 / RFU, RWDD3 / Fold change vs veh, RWDD3 / RFU, BCAT1 / Fold change vs veh, BCAT1 / RFU, EDEM3 / Fold change vs veh, EDEM3 / RFU, TMEM33 / Fold change vs veh, TMEM33 / RFU, WDR75 / Fold change vs veh, WDR75 / RFU, AHCTF1 / Fold change vs veh, AHCTF1 / RFU, TFRC / Fold change vs veh, TFRC / RFU, ZDHHC17 / Fold change vs veh, ZDHHC17 / RFU, NOM1 / Fold change vs veh, NOM1 / RFU, ARL8B / Fold change vs veh, ARL8B / RFU, ZBTB11 / Fold change vs veh, ZBTB11 / RFU, TAMM41 / Fold change vs veh, TAMM41 / RFU, KIAA1704 /// LOC100996395 / Fold change vs veh, KIAA1704 /// LOC100996395 / RFU, ING1 / Fold change vs veh, ING1 / RFU, TRMT61B / Fold change vs veh, TRMT61B / RFU, FUBP3 / Fold change vs veh, FUBP3 / RFU, TP53 / Fold change vs veh, TP53 / RFU, TNKS2 / Fold change vs veh, TNKS2 / RFU, ZFP14 / Fold change vs veh, ZFP14 / RFU, ACTR2 / Fold change vs veh, ACTR2 / RFU, PPP3R1 / Fold change vs veh, PPP3R1 / RFU, PIK3R1 / Fold change vs veh, PIK3R1 / RFU, HNRNPA1 / Fold change vs veh, HNRNPA1 / RFU, RNF170 / Fold change vs veh, RNF170 / RFU, ZNF28 / Fold change vs veh, ZNF28 / RFU, RNGTT / Fold change vs veh, RNGTT / RFU, OGT / Fold change vs veh, OGT / RFU, BRD1 / Fold change vs veh, BRD1 / RFU, MARS / Fold change vs veh, MARS / RFU, ZNF655 / Fold change vs veh, ZNF655 / RFU, FAHD1 / Fold change vs veh, FAHD1 / RFU, BDP1 / Fold change vs veh, BDP1 / RFU, LRRCC1 / Fold change vs veh, LRRCC1 / RFU, ARID1A / Fold change vs veh, ARID1A / RFU, ZNF146 / Fold change vs veh, ZNF146 / RFU, ZNF330 / Fold change vs veh, ZNF330 / RFU, GPN3 / Fold change vs veh, GPN3 / RFU, C9orf123 / Fold change vs veh, C9orf123 / RFU, N4BP2L2 / Fold change vs veh, N4BP2L2 / RFU, ARFIP1 / Fold change vs veh, ARFIP1 / RFU, FAM179B / Fold change vs veh, FAM179B / RFU, BCL10 / Fold change vs veh, BCL10 / RFU, UHRF1BP1L / Fold change vs veh, UHRF1BP1L / RFU, BET1 / Fold change vs veh, BET1 / RFU, CNOT2 / Fold change vs veh, CNOT2 / RFU, ZNF268 / Fold change vs veh, ZNF268 / Fold change vs veh, ZNF507 / RFU, DGCR2 / Fold change vs veh, DGCR2 / RFU, WDSUB1 / Fold change vs veh, WDSUB1 / Fold change vs veh, HSP90B1 /// MIR3652 / RFU, ADSS / Fold change vs veh, ADSS / RFU, GK / Fold change vs veh, GK / RFU, ZNF148 / Fold change vs veh, ZNF148 / RFU, TAF9 / Fold change vs veh, TAF9 / RFU, SLC1A5 / Fold change vs veh, SLC1A5 / RFU, SLMO2 / Fold change vs veh, SLMO2 / RFU, ABCC4 / Fold change vs veh, ABCC4 / RFU, LOC101060439 /// RAP1B / Fold change vs veh, LOC101060439 /// RAP1B / RFU, RFX7 / Fold change vs veh, RFX7 / RFU, GTPBP10 / Fold change vs veh, GTPBP10 / RFU, CNEP1R1 / Fold change vs veh, CNEP1R1 / RFU, BIVM-ERCC5 /// ERCC5 / Fold change vs veh, BIVM-ERCC5 /// ERCC5 / RFU, ILF3 / Fold change vs veh, ILF3 / RFU 11762660_at / Fold change /veh 11762660_at / RFU VCAN (11757783_s_at) / Fold change /veh VCAN (11757783_s_at) / RFU DDX43 (11728927_at) / Fold change /veh DDX43 (11728927_at) / RFU KRT8 (11758188_x_at) / Fold change /veh KRT8 (11758188_x_at) / RFU NKD1 (11759106_at) / Fold change /veh NKD1 (11759106_at) / RFU SRD5A1 (11742802_a_at) / Fold change /veh SRD5A1 (11742802_a_at) / RFU TPSAB1 /// TPSB2 (11721975_s_at) / Fold change /veh TPSAB1 /// TPSB2 (11721975_s_at) / RFU GSTM3 (11746129_a_at) / Fold change /veh GSTM3 (11746129_a_at) / RFU IL23R (11737362_x_at) / Fold change /veh IL23R (11737362_x_at) / RFU TMEM51 (11727254_a_at) / Fold change /veh TMEM51 (11727254_a_at) / RFU PIWIL2 (11732686_x_at) / Fold change /veh PIWIL2 (11732686_x_at) / RFU ORM1 (11744905_x_at) / Fold change /veh ORM1 (11744905_x_at) / RFU CCDC152 (11743942_at) / Fold change /veh CCDC152 (11743942_at) / RFU ECM1 (11717891_a_at) / Fold change /veh ECM1 (11717891_a_at) / RFU IL23R (11748794_a_at) / Fold change /veh IL23R (11748794_a_at) / RFU TNFAIP8L3 (11732012_x_at) / Fold change /veh TNFAIP8L3 (11732012_x_at) / RFU MBOAT4 (11741988_at) / Fold change /veh MBOAT4 (11741988_at) / RFU 11764193_at / Fold change /veh 11764193_at / RFU TMEM53 (11763286_at) / Fold change /veh TMEM53 (11763286_at) / RFU MAGEB2 (11727129_at) / Fold change /veh MAGEB2 (11727129_at) / RFU TMEM200A (11744735_a_at) / Fold change /veh TMEM200A (11744735_a_at) / RFU CCDC152 (11751479_a_at) / Fold change /veh CCDC152 (11751479_a_at) / RFU FAM211A (11726209_a_at) / Fold change /veh FAM211A (11726209_a_at) / RFU RGS16 (11746705_a_at) / Fold change /veh RGS16 (11746705_a_at) / RFU VCAN (11755009_s_at) / Fold change /veh VCAN (11755009_s_at) / RFU RHOB (11743442_s_at) / Fold change /veh RHOB (11743442_s_at) / RFU RGS16 (11720943_a_at) / Fold change /veh RGS16 (11720943_a_at) / RFU RGS16 (11720944_at) / Fold change /veh RGS16 (11720944_at) / RFU, VPS4B / Fold change vs veh, VPS4B / RFU, CREB1 / Fold change vs veh, CREB1 / RFU, DNAJC13 / Fold change vs veh, DNAJC13 / RFU, GNAQ / Fold change vs veh, GNAQ / RFU, CDK5R1 / Fold change vs veh, CDK5R1 / RFU, ZRANB3 / Fold change vs veh, ZRANB3 / RFU, CUL4A / Fold change vs veh, CUL4A / RFU, CCNY / Fold change vs veh, CCNY / RFU, UFL1 / Fold change vs veh, UFL1 / RFU, COG3 / Fold change vs veh, COG3 / RFU, DIAPH2 / Fold change vs veh, DIAPH2 / RFU, SKA2 / Fold change vs veh, SKA2 / RFU, AFF3 / Fold change vs veh, AFF3 / RFU, LMF1 / Fold change vs veh, LMF1 / RFU, IPO11 / Fold change vs veh, IPO11 / RFU, DFFB / Fold change vs veh, DFFB / RFU, FOXP1 / Fold change vs veh, FOXP1 / RFU, CARD8 / Fold change vs veh, CARD8 / RFU, STRN3 / Fold change vs veh, STRN3 / RFU, ADK / Fold change vs veh, ADK / RFU, RASSF2 / Fold change vs veh, RASSF2 / RFU, WIPF1 / Fold change vs veh, WIPF1 / RFU, LARP1B / Fold change vs veh, LARP1B / RFU, RASA1 / Fold change vs veh, RASA1 / RFU, RB1 / Fold change vs veh, RB1 / RFU, PPFIA1 / Fold change vs veh, PPFIA1 / RFU, MAT2A / Fold change vs veh, MAT2A / RFU, CCT5 / Fold change vs veh, CCT5 / RFU, WDR92 / Fold change vs veh, WDR92 / RFU, CUX1 / Fold change vs veh, CUX1 / RFU, TTC7A / Fold change vs veh, TTC7A / RFU, TMEM135 / Fold change vs veh, TMEM135 / RFU, DEPTOR / Fold change vs veh, DEPTOR / RFU, CPM / Fold change vs veh, CPM / RFU, DNAJB6 / Fold change vs veh, DNAJB6 / RFU, CACNA2D3 / Fold change vs veh, CACNA2D3 / RFU, DTX4 / Fold change vs veh, DTX4 / RFU, TFCP2 / Fold change vs veh, TFCP2 / RFU, GMCL1 /// GMCL1P1 / Fold change vs veh, GMCL1 /// GMCL1P1 / RFU, AEBP2 / Fold change vs veh, AEBP2 / RFU, SNHG1 /// SNORD22 /// SNORD25 /// SNORD26 /// SNORD27 /// SNORD28 /// SNORD29 /// SNORD31 / Fold change vs veh, SNHG1 /// SNORD22 /// SNORD25 /// SNORD26 /// SNORD27 /// SNORD28 /// SNORD29 /// SNORD31 / Fold change (Aza/veh), C12orf56 (ProbeSet 11735607_a_at) / Fold change (ACY-1035/veh), C12orf56 (ProbeSet 11735607_a_at) / Fold change (Aza/veh), FGFR1OP (ProbeSet 11751329_s_at) / Fold change (ACY-1035/veh), FGFR1OP (ProbeSet 11751329_s_at) / Fold change (Aza/veh), VPS36 (ProbeSet 11739960_a_at) / Fold change (ACY-1035/veh), VPS36 (ProbeSet 11739960_a_at) / RFU SYPL1 (11715823_x_at) / Fold change /veh SYPL1 (11715823_x_at) / RFU IGFBP7 (11715501_s_at) / Fold change /veh IGFBP7 (11715501_s_at) / RFU REEP3 (11722064_at) / Fold change /veh REEP3 (11722064_at) / RFU IGLL1 (11728026_x_at) / Fold change /veh IGLL1 (11728026_x_at): dose or concentration left out as unconfirmed
Conditions: ProbeSet 11727827_x_at; LIST B

SMILES: Nc1ncn([C@@H]2O[C@H](CO)[C@@H](O)[C@H]2O)c(=O)n1 [azacitidine]
- RFU, NDUFAF7: 58.08 RFU
